This is an account of results in US10273262B2, “Crystalline form A of obeticholic acid and preparation method thereof” (CRYSTAL PHARMATECH CO., LTD., priority 2014, dated 2019).

For the series the following is noted: ethyl acetate and n-heptane 1:9, 25° C., 500 rpm, 24 hours.

Text: X-ray powder diffraction pattern in the present invention was acquired by a Panalytical Empyrean X-ray powder diffractometer. The parameters of the X-ray powder diffraction method of the present invention were as follows: • X-ray Reflection: Cu, Kα • Kα1 (Å): 1.540598; Kα2 (Å): 1.544426 • Kα2/Kα1 intensity ratio: 0.50 • Voltage: 45 (kV) • Current: 40 (mA) • Scan range: from 3.0 degree to 40.0 degree The pattern of differential scanning calorimetry (DSC) in the present invention was acquired by a TA Q200. The parameters of the differential scanning calorimetry (DSC) method of the present invention were as follow: • Heating rate: 10° C./min • Purge gas: nitrogen. The pattern of thermal gravimetric analysis (TGA) in the present invention was acquired by a TA Q5000. The parameters of the thermal gravimetric analysis (TGA) method of the present invention were as follow: • Heating rate: 10° C./min; • Purge gas: nitrogen.
The suspension was stirred at 500 rpm in a thermostat at 25° C. for 24 hours, and centrifuged to give a solid which was tested by XRPD.

As to `CC[C@H]1[C@@H](O)[C@@H]2[C@H](CC[C@]3(C)[C@@H]([C@H](C)CCC(=O)O)CC[C@@H]23)[C@@]2(C)CC[C@@H](O)C[C@@H]12` [Form C, obeticholic acid], the “Crystal form after stirring the suspension (form conversion by XRPD)” value is “transferred to crystalline Form A”.
